Test results published in PubChem BioAssay AID540316 (Broad Institute, 2011).
Records with an inconclusive call do not appear. Activity calls are given as the source filed them.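 How the source made its calls: active means compounds lowering viability whose fitted half-maximal concentration is at most tenfold the top tested dose; inconclusive means flat curve with viability loss of 30 to 70%, or bad fit; inactive means the rest.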

Test system: BJeH fibroblasts viability, Alamar Blue fluorescence, 48 h
Assay: viability loss in BJeH fibroblasts, dose response, counter-screen for Ras selective lethality project, cell-based, plate reader, dry powder, set 4 (AID 540316)
Conditions: not given

Compound	AC50 [µM]
O=C(NCCNC(c1ccccc1)c1ccccc1)c1ccc([N+](=O)[O-])o1	5.31
COc1ccc(C(c2ccc(OC)cc2)N2CCN(C(=O)c3ccc([N+](=O)[O-])o3)CC2)cc1	6.76
O=C(c1ccc([N+](=O)[O-])o1)N1CCN(C(c2ccc(F)cc2)c2ccc(F)cc2)CC1	14.2
CCOc1ccccc1-n1c(C(C)N2CCN(C(=O)COc3ccc(Cl)cc3)CC2)nc2ccccc2c1=O (stereo not given)	7.93
COC(=O)c1ccc([C@@H]2c3[nH]c4ccccc4c3C[C@@H](C(=O)OC)N2C(=O)CCl)cc1	2.68

Test system: not listed separately
Assay: as above
Conditions: BJeH fibroblasts viability, Alamar Blue fluorescence, 48 h; at 48 µM (top of the series)

Compound	activity change, negative = fewer viable cells
Cc1onc(C(=O)N2CCCN(C(c3ccccc3)c3ccccc3)CC2)c1[N+](=O)[O-]	-10.7% (inactive)
Cc1onc(C(=O)N2CCN(Cc3ccccc3)CC2)c1[N+](=O)[O-]	-0.245% (inactive)
Cc1onc(C(=O)NCCNC(c2ccccc2)c2ccccc2)c1[N+](=O)[O-]	-11.9% (inactive)
Cc1onc(CC(=O)N2CCN(C(c3ccc(F)cc3)c3ccc(F)cc3)CC2)c1[N+](=O)[O-]	-13.5% (inactive)
Cc1onc(C(=O)N2CCN(C(c3ccccc3)c3ccccc3)CC2)c1[N+](=O)[O-]	-11.7% (inactive)
